Patent EP0367302A2, “Process for semi-synthesis of human insulin, water-soluble cross-linked Achromobacter protease I for use therein and a process for preparing the same” (priority 1982, dated 1983)
Read-outs that look alike come from different tables or passages of the source.

Columns and labels:
[1] = tested on: PLP-Ia; assay type: biochemical, Achromobacter lyticus M 497-1
[2] = target: water-soluble cross-linked polymer of PLP (Achromobacter lyticus, UniProt P15636); test: Activity to substrates (substrate specificity), cross-linked polymer; assay type: biochemical; conditions: enzyme: Cross-Linked Polymer (0.144 u); pH 9.5, 30°C; Benzoyl lysine-p-nitroanilide = 100
water-soluble cross-linked polymer of PLP, sequence (P15636 206-473 limits assumed): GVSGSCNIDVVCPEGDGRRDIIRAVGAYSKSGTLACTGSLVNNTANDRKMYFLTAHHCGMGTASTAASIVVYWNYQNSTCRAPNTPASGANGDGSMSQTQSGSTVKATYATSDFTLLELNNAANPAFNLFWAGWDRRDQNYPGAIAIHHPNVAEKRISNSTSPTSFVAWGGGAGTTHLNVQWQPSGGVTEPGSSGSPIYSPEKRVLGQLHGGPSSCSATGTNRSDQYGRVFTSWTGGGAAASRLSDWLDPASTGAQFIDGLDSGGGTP
Method: (§1) The activity of the enzyme was measured as follows. […] After preliminarily warming at 30°C, 0.1 mℓ of the enzyme was added to the mixture and the mixture was reacted accurately for 25 minutes at 30°C. After completion of the reaction, 1.0 mℓ of a 45% acetic acid aqueous solution was added to discontinue the reaction. Then, the reaction liquid was colorimetrically measured at wavelength of 405 nm to determine absorbance. As an enzyme unit, an amount of enzyme producing 1 µmole/min of p-nitroaniline at 30°C was made 1 unit (u). Enzyme titer was calculated according to the following equation. [formula] […] Thereafter, activities to the respective substrates were measured according to the method for measuring activity described above. Results of Table 8 were obtained.

[3] = target: PLP prior to Polymerization (Achromobacter lyticus, UniProt P15636); test: Activity to substrates (substrate specificity), PLP prior to polymerization; assay type: biochemical; conditions: enzyme: PLP prior to Polymerization; pH 9.5, 30°C; Benzoyl lysine-p-nitroanilide = 100
PLP prior to Polymerization, sequence (P15636 206-473 limits assumed): as above
Method: as §1

[4] = target: Achromobacter protease I (Achromobacter lyticus, UniProt P15636); conditions: cited from earlier work
Achromobacter protease I, sequence (P15636 206-473 limits assumed): as above

Row | Compound | Relative Activity ([1]; 1000 µM) | Relative Activity [2] | Relative Activity [3] | other results
1 | NiCℓ₂ | 83.8% | – | – | –
2 | MnCℓ₂ | 101.3% | – | – | –
3 | [Cl][Hg][Cl] [HgCℓ₂] | – | – | – | Relative Activity ([1]; 100 µM): 109.4%
4 | CoCℓ₂ | 98.1% | – | – | –
5 | CC(=O)N[C@@H](Cc1ccccc1)C(=O)Nc1ccc([N+](=O)[O-])cc1 [Acetylphenylalanine-p-nitroanilide] | – | 0.00% | 0.00% | –
6 | Cc1ccc(S(=O)(=O)N[C@@H](CCCNC(=N)N)C(=O)CCl)cc1 [tosyl-L-arginine chloromethyl ketone] | – | – | – | Relative Activity ([1]; 100 µM): 79.1%
7 | N=C(N)NCCC[C@H](NC(=O)c1ccccc1)C(=O)Nc1ccc([N+](=O)[O-])cc1 [Benzoyl arginine-p-nitroanilide] | – | 0.04% | 0.01% | –
8 | [Ca+2].[Cl-].[Cl-] [CaCℓ₂] | 102.2% | – | – | –
9 | N[C@@H](CS)C(=O)O [L-cystein] | 97.8% | – | – | –
10 | NCCCC[C@H](NC(=O)c1ccccc1)C(=O)Nc1ccc([N+](=O)[O-])cc1 [Benzoyl lysine-p-nitroanilide] | – | 100% | 100% | –
11 | [Cl-].[Cl-].[Zn+2] [ZnCℓ₂] | 44.1% | – | – | inhibition of the enzyme (in words) [1]: inhibited
12 | NCCCC[C@H](N)C(=O)Nc1ccc([N+](=O)[O-])cc1 [Lysine-p-nitroanilide] | – | 5.6% | 2.4% | –
13 | O=C(O)CI [monoiodoacetate] | 84.4% | – | – | –
14 | C[C@H](N)C(=O)Nc1ccc([N+](=O)[O-])cc1 [Alanine-p-nitroanilide] | – | 0.00% | 0.00% | –
15 | CC(C)C[C@H](N)C(=O)Nc1ccc([N+](=O)[O-])cc1 [Leucine-p-nitroanilide] | – | 0.00% | 0.00% | –
16 | c1cnc2c(c1)ccc1cccnc12 [o-phenanthroline] | 99.3% | – | – | inhibition of the enzyme (in words) [4]: not inhibited
17 | MgCℓ₂ | 95.3% | – | – | –
18 | Cc1ccc(S(=O)(=O)N[C@@H](Cc2ccccc2)C(=O)CCl)cc1 [tosyl-L-phenylalanine chloromethyl ketone] | 92.2% | – | – | inhibition of the enzyme (in words) [4]: not inhibited
19 | diisopropyl phosphochloride | – | – | – | inhibition of the enzyme (in words) [4]: strongly inhibited
20 | N[C@@H](CCC(=O)O)C(=O)Nc1ccc([N+](=O)[O-])cc1 [Glutamic acid-p-nitroanilide] | – | 0.00% | 0.00% | –
21 | O=C(N[C@@H](Cc1ccc(O)cc1)C(=O)Nc1ccc([N+](=O)[O-])cc1)c1ccccc1 [Benzoyl tyrosine-p-nitroanilide] | – | 0.00% | 0.00% | –
22 | O=C(O)c1cc[c]([Hg][Cl])cc1 [p-chloromercury benzoate] | – | – | – | Relative Activity ([1]; 100 µM): 94.8%; inhibition of the enzyme (in words) [4]: not inhibited
23 | Cc1ccc(S(=O)(=O)N[C@@H](CCCCN)C(=O)CCl)cc1 [tosyl-L-lysine chloromethyl ketone] | – | – | – | inhibition of the enzyme (in words) [1]: undergoes inhibition; Relative Activity ([1]; 100 µM): 0%; inhibition of the enzyme (in words) [4]: strongly inhibited
24 | O=S(=O)(F)Cc1ccccc1 [phenylmethylsulfonyl fluoride] | – | – | – | inhibition of the enzyme (in words) [1]: undergoes inhibition; Relative Activity ([1]; 2000 µM): 18.3%
25 | O[C@H](CS)[C@H](O)CS (racemic) [dithiothreitol] | 103.9% | – | – | –
26 | [Cl-].[Na+] [NaCℓ₂] | – | – | – | Relative Activity ([1]; bz-lys-p-na amidase assay, pH 9.5, 25 min, 1000 µM): 99.0%
